Reference: patent US6872803B1, “Peptides” (Kyowa Hakko Kogyo Co., Ltd., priority 1993, dated 2005)
Where a SMILES comes first, the peptide text is derived from it. Bridges are numbered along the chain shown (N, C = ends). [ ]: non-standard residue; d: D form. Hyp = O=C(O)[C@@H]1C[C@@H](O)CN1

Tests used:
trypsin = experiment: in vitro; details: pH 7.2
Procedure: To this was added trypsin (Sigma Co.) in an amount of 1/20 weight of compound (1) or (b). The resulting solution was incubated at 37° C. and sampled at intervals. The samples were analyzed by HPLC, using a reversed-phase column (YMC-Pack, ODS-AM, 150×6 mm I.D.). Elution was carried out by linear gradient elution using acetonitrile (0% to 45%) containing 0.1% TFA for 30 minutes. Absorbance at 220 nm of the eluates was measured.

α-chymotrypsin [1] = test system: T1, α-chymotrypsin; experiment: Stability to α-chymotrypsin; type: in vitro ADME; details: α-chymotrypsin (Sigma Co.); after 6 hours; α-chymotrypsin 1/10 weight, pH 7.2, 37° C.; read-out: residual amount remaining
T1 construct: purchased Sigma Co
Procedure: (§1) To this were added α-chymotrypsin (Sigma Co.) and N^α-p-tosyl-L-lysine chloromethyl ketone (Sigma Co.) each in an amount of 1/10 weight of compound (2) or (c). […] Absorbance at 220 nm of the eluate was measured.

prolyl-endopeptidase [2] = experiment: in vitro; details: prolyl-endopeptidase (Seikagaku Corporation), pH 7.2
Procedure: (§2) The resulting mixture was incubated at 37° C. and sampled at intervals. The samples were analyzed by HPLC, using a reversed-phase column (YMC-Pack, ODS-AM, 150×6 mm I.D.). Elution was carried out by linear gradient elution using acetonitrile (0% to 45%) containing 0.1% TFA for 30 minutes. Absorbance at 220 nm of the eluate was measured.

prolyl-endopeptidase [3] = molecular target: prolyl-endopeptidase (Elizabethkingia meningoseptica, UniProt P27028); experiment: in vitro; details: prolyl-endopeptidase in PBS(−) buffer, pH 7.2
Procedure: as §2

[4] = test system: B16-F10 (mouse melanoma) cells; experiment: Cell-adhesion inhibiting activity (adhesion of biotin-labeled cells to mouse fibronectin-coated plate); type: cell-based
Procedure: To a 96-well flat bottom plate (Sumitomo Bakelite Co.) added were […] (5 μg/ml-culture) of mouse fibronectin (produced by Telios Pharmaceutical Inc.). The plate was allowed to stand for 2 hours at room temperature to coat with mouse fibronectin. Each solution was added to the plate. Next, biotin-labeled B16-F10 (mouse melanoma) cells were added thereto and incubated at 37° C. for 30 minutes. After incubation, the non-adhered cells were removed by suction, and the adhered cells were fixed by 0.25% glutaraldehyde/PBS. The thus-fixed cells were washed with Tween-PBS, and peroxidase-labeled avidin D (Vector Co.) was added thereto and reacted for one hour at room temperature. Thereafter, the cells were washed with Tween-PBS and colored with an ABTS solution. Using NJ-2001 (Nippon Intermed Co.), the absorbance of the colored cells at OD415 was measured by colorimetry.
From the absorbance thus measured, the percentage inhibition of adhesion of the cells was obtained according to the following equation: Percentage Inhibition of Cell Adhesion=[(A−B)/A]×100 • A: absorbance in the absence of the test compound • B: absorbance in the presence of the test compound […]

[5] = test system: platelet-rich plasma (PRP); experiment: Inhibitory activity against agglutination of platelets stimulated by collagen; type: cell-based, white rabbit; details: collagen 10 μg/ml
Procedure: The blood was collected from the heart of a white rabbit (male weight 2 kg) and mixed with 3.8% sodium citrate (1:9 3.8% sodium citrate/blood). The mixture was centrifuged at 900 r.p.m., and the supernatant was isolated as platelet-rich plasma (PRP). The remaining lower layer was centrifuged at 2500 r.p.m., and the supernatent was isolated as platelet-poor plasma (PPP). These isolates were used in the following test. The percentage of platelet agglutination was measured, using a platelet agglutination measuring device, TE-500 (produced by Elmer Optical Co.). As the standard for platelet agglutination in this test, the percentage of platelet agglutination measured in PRP only was defined as 0%, while that measured in PPP only as 100%. Test solutions each containing a test compound, compound (1) or compound (b) were prepared so as to give a final concentration of 1, 0.3 or 0.1 mM.
Ten μl of re-distilled water (as a control) or the test solution and 200 μl of PRP were put into a cuvet and pre-incubated for 3 minutes, then 10 μl of a collagen that had been prepared to have a final concentration of 10 μg/ml were added thereto, and the percentage of platelet agglutination was measured.

α-chymotrypsin [6] = molecular target: T2, α-chymotrypsin (Bos taurus, UniProt P00766, DEL14-15/DEL147-148); experiment: Stability to α-chymotrypsin; type: in vitro ADME; details: α-chymotrypsin (Sigma Co.) in PBS(−) buffer; α-chymotrypsin 1/10 weight, PBS(−) pH 7.2, 37° C.
T2 construct: purchased Sigma Co
Procedure: as §1

[7] = molecular target: T3, BK receptor derived from guinea pig ilea (Cavia porcellus, UniProt O70526); experiment: BK-receptor binding inhibiting activity; details: 3H-BK 200 pM
T3 construct: from tissue; host or cells: guinea pig ileum membrane fraction
T3 sequence (O70526 1-372): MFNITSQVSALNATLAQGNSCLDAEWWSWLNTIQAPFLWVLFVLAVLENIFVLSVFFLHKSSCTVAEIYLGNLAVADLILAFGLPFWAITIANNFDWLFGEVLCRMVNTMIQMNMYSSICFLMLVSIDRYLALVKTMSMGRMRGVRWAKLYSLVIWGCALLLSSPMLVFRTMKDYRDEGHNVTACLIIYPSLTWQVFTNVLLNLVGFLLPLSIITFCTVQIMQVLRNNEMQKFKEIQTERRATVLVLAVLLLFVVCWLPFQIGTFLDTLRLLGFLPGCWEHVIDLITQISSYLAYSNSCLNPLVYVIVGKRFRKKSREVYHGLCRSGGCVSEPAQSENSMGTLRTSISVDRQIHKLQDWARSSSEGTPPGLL
Procedure: Inhibition of the binding of BK to the BK receptor derived from guinea pig ilea
Using a polytron (Type PT10/35, Kinematica Gmbh), guinea pig ilea was homogenized in buffer (A) (containing 25 mM N-tris(hydroxymethyl)methyl-2-aminoethane-sulfonic acid-NaOH, pH 6.8) at 4° C.
The suspension thus obtained was centrifuged at 4° C. for 10 minutes at 8,000×g, and the supernatant was collected. The supernatant was further centrifuged at 4° C. for 60 minutes at 40,000×g, and the solid was collected. The solid was suspended in buffer (A), and the resulting suspension was centrifuged at 4° C. for 60 minutes at 40,000×g. The resulting solid was suspended to give a protein content of 2 mg/ml to serve as a membrane fraction. […]
^3H-BK (200 pM) was added to each of the membrane fraction solutions, to which non-labeled BK (final concentration: 1 μM) had been added, a test compound had been added or none of these had been added. […] The filter was washed with buffer (C) (comprising 50 mM Tris-HCl, 1 mM EDTA, pH 7.6), and the radioactivity of the filter was measured, using a liquid scintillation counter (LSC3500, Aroka Co.) to determine the amount of the ^3H-BK bound to the receptor and non-specifically bound 3H-BK. […]

[8] = snake venom peptides, literature; cited from earlier work

Sequence of prolyl-endopeptidase (Elizabethkingia meningoseptica, UniProt P27028) (P27028 21-705): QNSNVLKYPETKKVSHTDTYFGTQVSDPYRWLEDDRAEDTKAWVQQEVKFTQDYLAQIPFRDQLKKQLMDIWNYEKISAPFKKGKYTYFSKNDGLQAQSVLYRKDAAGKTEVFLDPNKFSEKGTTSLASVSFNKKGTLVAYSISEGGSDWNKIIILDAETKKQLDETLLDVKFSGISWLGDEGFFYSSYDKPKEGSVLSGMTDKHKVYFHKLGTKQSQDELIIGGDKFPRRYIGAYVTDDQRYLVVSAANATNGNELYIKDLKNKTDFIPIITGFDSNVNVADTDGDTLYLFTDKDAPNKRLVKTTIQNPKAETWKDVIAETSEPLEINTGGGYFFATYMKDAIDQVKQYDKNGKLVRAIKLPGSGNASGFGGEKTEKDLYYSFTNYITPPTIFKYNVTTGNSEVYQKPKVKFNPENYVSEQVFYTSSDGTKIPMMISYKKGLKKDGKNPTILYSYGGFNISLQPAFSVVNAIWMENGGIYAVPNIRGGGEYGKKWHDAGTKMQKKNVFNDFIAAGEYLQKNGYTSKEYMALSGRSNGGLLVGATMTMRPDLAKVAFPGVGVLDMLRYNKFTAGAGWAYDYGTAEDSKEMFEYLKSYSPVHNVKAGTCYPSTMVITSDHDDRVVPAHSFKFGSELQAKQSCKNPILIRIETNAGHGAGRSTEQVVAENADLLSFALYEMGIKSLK

CC(C)[C@H](NC(=O)[C@H](Cc1c[nH]c2ccccc12)NC(=O)[C@@H]1CC(=O)NCC(=O)N[C@@H](CC(N)=O)C(=O)N[C@@H](Cc2c[nH]c3ccccc23)C(=O)N[C@@H](Cc2c[nH]cn2)C(=O)NCC(=O)N[C@@H]([C@@H](C)O)C(=O)N[C@@H](C)C(=O)N2CCC[C@H]2C(=O)N1)C(=O)N[C@H](C(=O)NCC(=O)N[C@@H](CCCNC(=N)N)C(=O)NCC(=O)N[C@@H](CC(=O)O)C(=O)N[C@@H](CO)C(=O)N1CCC[C@H]1C(=O)N[C@@H](C)C(=O)O)[C@@H](C)O [Compound 1] (GNWHGTAPDWVTGRGDSPA-OH; lactam N-9)
remaining at 9 h, 25 μg/ml (trypsin; trypsin (Sigma Co.)): ~60%

CC(C)[C@H](NC(=O)[C@H](C)NC(=O)[C@H](Cc1ccc(O)cc1)NC(=O)[C@@H](NC(=O)[C@H](Cc1c[nH]c2ccccc12)NC(=O)[C@@H]1CC(=O)NCC(=O)N[C@@H](CC(N)=O)C(=O)N[C@@H](Cc2c[nH]c3ccccc23)C(=O)N[C@@H](Cc2c[nH]cn2)C(=O)NCC(=O)N[C@@H]([C@@H](C)O)C(=O)N[C@@H](C)C(=O)N2CCC[C@H]2C(=O)N1)C(C)C)C(=O)N[C@H](C(=O)NCC(=O)N[C@@H](CCCNC(=N)N)C(=O)NCC(=O)N[C@@H](CC(=O)O)C(=O)N[C@@H](CO)C(=O)N1CCC[C@H]1C(=O)N[C@@H](C)C(N)=O)[C@@H](C)O [Compound 2] (GNWHGTAPDWVYAVTGRGDSPA-NH2; lactam N-9)
remaining at 6 h, 25 μg/ml (α-chymotrypsin [1]): ~95%

CSCC[C@H](NC(=O)[C@@H](NC(=O)[C@@H](NC(=O)[C@H](CS)NC(=O)[C@@H]1CCCN1C(=O)[C@H](CC(C)C)NC(=O)CNC(=O)[C@H](CCSC)NC(=O)[C@H](CO)NC(=O)[C@H](Cc1c[nH]c2ccccc12)NC(=O)[C@@H]1CC(=O)NCC(=O)N[C@@H](CC(N)=O)C(=O)N[C@@H](Cc2c[nH]c3ccccc23)C(=O)N[C@@H](Cc2c[nH]cn2)C(=O)NCC(=O)N[C@@H]([C@@H](C)O)C(=O)N[C@@H](C)C(=O)N2CCC[C@H]2C(=O)N1)C(C)C)C(C)C)C(=O)O [Compound 3] (GNWHGTAPDWSMGLPCVVM-OH; lactam N-9)
remaining at 7 h, 25 μg/ml (prolyl-endopeptidase [2]): ~60%

CC[C@H](C)[C@H](NC(=O)[C@H](CS)NC(=O)[C@@H]1CCCN1C(=O)[C@H](CC(C)C)NC(=O)CNC(=O)[C@H](CCSC)NC(=O)[C@H](CO)NC(=O)[C@H](Cc1c[nH]c2ccccc12)NC(=O)[C@@H]1CC(=O)NCC(=O)N[C@@H](CC(N)=O)C(=O)N[C@@H](Cc2c[nH]c3ccccc23)C(=O)N[C@@H](Cc2c[nH]cn2)C(=O)NCC(=O)N[C@@H]([C@@H](C)O)C(=O)N[C@@H](C)C(=O)N2CCC[C@H]2C(=O)N1)C(=O)N[C@@H](Cc1ccccc1)C(=O)N[C@@H](CCSC)C(=O)O [Compound 5] (GNWHGTAPDWSMGLPCIFM-OH; lactam N-9)
remaining at 1 h, 25 μg/ml (prolyl-endopeptidase [2]): 63%

H-SMGLPCIFM-OH [Compound f, H-Ser-Met-Gly-Leu-Pro-Cys-Ile-Phe-Met-OH]
remaining at 1 h, 25 μg/ml (prolyl-endopeptidase [2]): 12%

H-SMGLPCVVM-OH [Compound d, H-Ser-Met-Gly-Leu-Pro-Cys-Val-Val-Met-OH]
half-life at 25 μg/ml (prolyl-endopeptidase [3]): < 1 h

H-VTGRGDSPA-OH [Compound b, H-Val-Thr-Gly-Arg-Gly-Asp-Ser-Pro-Ala-OH]
half-life at 25 μg/ml (trypsin; trypsin (Sigma Co.) in PBS(−) buffer): < 2 h
IC50 ([4]; B16-F10 cells on mouse fibronectin, 37° C. 30 minutes, read-out: concentration for 50% inhibition of the adhesion of the cells (IC50)): 1130 µM
Percentage of platelet agglutination inhibition (%) ([5]; test compound 0.3 mM): 20.3%
Percentage of platelet agglutination inhibition (%) ([5]; test compound 1.0 mM): 61.2%

H-VYAVTGRGDSPA-NH2 [c, H-Val-Tyr-Ala-Val-Thr-Gly-Arg-Gly-Asp-Ser-Pro-Ala-NH2]
half-life at 25 μg/ml (α-chymotrypsin [6]): < 1 h
cell adhesion-inhibiting activity (comparison, FIG. 2) ([4]; same test, compound (2) versus compound (c)): almost the same cell adhesion-inhibiting activity

H-[dR]RP[Hyp]GFS[dF]LR-OH [Compound m]
Percentage inhibition (%) ([7]; test compound 10^−7 M): 68%
Percentage inhibition (%) ([7]; test compound 10^−8 M): 20%

albolarin
activity, times higher than the activity of Gly-Arg-Gly-Asp-Ser [8]: ~1000 times

flavoridin
activity, times higher than the activity of Gly-Arg-Gly-Asp-Ser [8]: ~1000 times

trigramin
activity, times higher than the activity of Gly-Arg-Gly-Asp-Ser [8]: ~1000 times
